The results in this text go back to patent publication US20250084097A1, “MACROCYCLIC AMIDE COMPOUNDS AND APPLICATION THEREOF” (Medshine Discovery Inc., priority 2021, published 2025).

Holding throughout (assay): Cell proliferation inhibition, CellTiter-Glo
Common to all, as to type: cell-based

The target in assay [1] is T1, Ba/F3-TEL-EGFR (L858R/C797S) (Homo sapiens, UniProt P00533, C797S/L858R, cells depend on it).
T1 construct: fused on or other part: TEL (ETV6) N-terminal oligomerising part fused to the EGFR kinase part; P41212 (Transcription factor ETV6)
As for the experimental part:
(§1) AdenosineTri-Phosphate (ATP) is an energy carrier shared by various life activities in nature, and is the smallest unit of energy storage and transfer. The CellTiter-Glo™ living cell assay kit uses luciferase as a detector, and luciferase requires the participation of ATP in the process of luminescence. CellTiter-Glo™ reagent is added to a cell culture medium, and the luminescence value is measured. The light signal is directly proportional to the amount of ATP in the system, and ATP is positively correlated with the number of living cells. Therefore, cell proliferation can be detected by detecting ATP content with the CellTiter-Glo kit. In this assay, the cell lines were Ba/F3-FL-EGFR (L858R/T790M/C797S), Ba/F3-FL-EGFR (WT), Ba/F3-FL-EGFR (L858R), Ba/F3-FL-EGFR (del19-S752-I759), Ba/F3-FL-EGFR (del19-E746-A750/T790M/C797S), Ba/F3-FL-EGFR (L858R/T790M), Ba/F3-FL-EGFR (del19-E746-A750/T790M), Ba/F3-TEL-EGFR (L858R/C797S), Ba/F3-FL-EGFR (del19-E746-A750/C797S) stably transfected cell lines.
(§2) The cell lines were cultured in an incubator at 37° C. and 5% CO2. The cells were periodically passaged, and cells in logarithmic growth phase were taken for plating.
(§3) a) DMSO was used to prepare a 10 mM solution of the compound to be tested, and then the compound to be tested was diluted to 0.3 or 1 mM with DMSO.
(§4) b) Preparation of 1000× compound storage plate (tube): DMSO was used to dilute by 3-fold gradient from the highest concentration to the lowest concentration, with a total of 9 concentrations.
(§5) c) Preparation of 20× compound working solution: 49 μL of cell culture medium was added to a flat-bottomed 96-well transparent drug plate, and 1 μL of compound was pipetted from the 1000× compound storage plate to the cell culture medium of the 96-well transparent drug plate. 1 μL of DMSO was added to the vehicle control. After adding compound or DMSO, the well content was mixed to uniform by aspiration and expelling with pipette.
(§6) a) Cells were stained with trypan blue and viable cells were counted. The cell viability rate was required to be above 90%.
(§7) b) 95 μL of cell suspension (2000 cells/well) was added to each well of the compound detection cell plate, and culture medium without cells (containing 0.1% DMSO) was added to the Min control well.
(§8) c) Dosing in the compound detection cell plate: 5 μL of 20× compound working solution was added to the cell culture plate. 5 μL of DMSO-cell culture mixture was added to the Max control. The final concentration of DMSO was 0.1%.
(§9) d) The culture plate was incubated in an incubator at 37° C., 5% CO2 for 72 hours.
(§10) The following steps were performed according to the instruction of Promega CellTiter-Glo luminescence cell viability detection kit (Promega-G7573). • a) The CellTiter-Glo buffer was thawed and allowed to stand to reach room temperature; • b) CellTiter-Glo substrate was allowed to stand to reach room temperature; • c) CellTiter-Glo buffer was added to CellTiter-Glo substrate in a bottle to dissolve the substrate to formulate CellTiter-Glo working solution; • d) The working solution was vortexed slowly for fully dissolution; • e) The cell culture plates were taken out and allowed to stand for 10 minutes to equilibrate to room temperature; • f) 50 μL (equal to half the volume of cell culture solution in each well) of Cell Titer-Glo working solution was added into each well. • g) The culture plates were shaken on an orbital shaker for 2 minutes to induce cell lysis; • h) The culture plates were left at room temperature for 10 minutes to stabilize the luminescence signal; • i) The luminous signal was detected on the PerkinElmer EnVision®2105 plate reader.
(§11) By PerkinElmer EnVision®2105 reading, the corresponding […] value RLU for each well was yielded.
(§12) Cell proliferation inhibition rate (Inhibition Rate) data were processed using the following formula:
(§13) Inhibition Rate (Inh %)=100−(RLUDrug−RLUMin)/(RLUMax−RLUMin)*100%. […]

The target of assay [2] is Ba/F3-FL-EGFR (del19-E746-A750/T790M) (Homo sapiens, UniProt P00533, DEL746-750/T790M, cells depend on it). As for the experimental part:
as §1, §2, §3, §4, §5, §6, §7, §8, §9, §10, §11, §12, §13

The target in assay [3] is Ba/F3-FL-EGFR (L858R/T790M) (Homo sapiens, UniProt P00533, T790M/L858R, cells depend on it). The procedure:
as §1, §2, §3, §4, §5, §6, §7, §8, §9, §10, §11, §12, §13

Another assay addresses Ba/F3-FL-EGFR (L858R) (Homo sapiens, UniProt P00533, L858R, cells depend on it). The note with it: 72 hours, read-out: Cell half-maximal inhibition concentration IC50 Ba/F3-FL-EGFR (L858R). The procedure:
as §1, §2, §3, §4, §5, §6, §7, §8, §9, §10, §11, §12, §13

The next assay has as its target Ba/F3-FL-EGFR (WT) (Homo sapiens, UniProt P00533). As for the experimental part: as §1, §2, §3, §4, §5, §6, §7, §8, §9, §10, §11, §12, §13
Assay [4] deals with Ba/F3-FL-EGFR (del19-E746-A750/T790M/C797S) (Homo sapiens, UniProt P00533, DEL746-750/T790M/C797S, cells depend on it). The following applies: 72 hours, read-out: Cell half-maximal inhibition concentration IC50 Ba/F3-FL-EGFR (del19-E746-A750/T790M/C797S). The procedure: as §1, §2, §3, §4, §5, §6, §7, §8, §9, §10, §11, §12, §13
The target in assay [5] is Ba/F3-FL-EGFR (del19-S752-I759) (Homo sapiens, UniProt P00533, DEL752-759, cells depend on it). The note with it: 72 hours, read-out: Cell half-maximal inhibition concentration IC50 Ba/F3-FL-EGFR (del19-S752-I759). As for the experimental part: as §1, §2, §3, §4, §5, §6, §7, §8, §9, §10, §11, §12, §13
Setting [6] is: 72 hours, read-out: Cell half-maximal inhibition concentration IC50 Ba/F3-TEL-EGFR (L858R/C797S).
Setting [7] is: 72 hours, read-out: Cell half-maximal inhibition concentration IC50 Ba/F3-FL-EGFR (del19-E746-A750/T790M).
Where [8] appears, read: 72 hours, read-out: Cell half-maximal inhibition concentration IC50 Ba/F3-FL-EGFR (L858R/T790M).
Setting [9] is: 72 hours, read-out: Cell half-maximal inhibition concentration IC50 Ba/F3-FL-EGFR (WT).

Where two headings read alike, the source gives them in different places.

Sequence of Ba/F3-FL-EGFR (L858R/T790M) (P00533 whole entry T790M/L858R): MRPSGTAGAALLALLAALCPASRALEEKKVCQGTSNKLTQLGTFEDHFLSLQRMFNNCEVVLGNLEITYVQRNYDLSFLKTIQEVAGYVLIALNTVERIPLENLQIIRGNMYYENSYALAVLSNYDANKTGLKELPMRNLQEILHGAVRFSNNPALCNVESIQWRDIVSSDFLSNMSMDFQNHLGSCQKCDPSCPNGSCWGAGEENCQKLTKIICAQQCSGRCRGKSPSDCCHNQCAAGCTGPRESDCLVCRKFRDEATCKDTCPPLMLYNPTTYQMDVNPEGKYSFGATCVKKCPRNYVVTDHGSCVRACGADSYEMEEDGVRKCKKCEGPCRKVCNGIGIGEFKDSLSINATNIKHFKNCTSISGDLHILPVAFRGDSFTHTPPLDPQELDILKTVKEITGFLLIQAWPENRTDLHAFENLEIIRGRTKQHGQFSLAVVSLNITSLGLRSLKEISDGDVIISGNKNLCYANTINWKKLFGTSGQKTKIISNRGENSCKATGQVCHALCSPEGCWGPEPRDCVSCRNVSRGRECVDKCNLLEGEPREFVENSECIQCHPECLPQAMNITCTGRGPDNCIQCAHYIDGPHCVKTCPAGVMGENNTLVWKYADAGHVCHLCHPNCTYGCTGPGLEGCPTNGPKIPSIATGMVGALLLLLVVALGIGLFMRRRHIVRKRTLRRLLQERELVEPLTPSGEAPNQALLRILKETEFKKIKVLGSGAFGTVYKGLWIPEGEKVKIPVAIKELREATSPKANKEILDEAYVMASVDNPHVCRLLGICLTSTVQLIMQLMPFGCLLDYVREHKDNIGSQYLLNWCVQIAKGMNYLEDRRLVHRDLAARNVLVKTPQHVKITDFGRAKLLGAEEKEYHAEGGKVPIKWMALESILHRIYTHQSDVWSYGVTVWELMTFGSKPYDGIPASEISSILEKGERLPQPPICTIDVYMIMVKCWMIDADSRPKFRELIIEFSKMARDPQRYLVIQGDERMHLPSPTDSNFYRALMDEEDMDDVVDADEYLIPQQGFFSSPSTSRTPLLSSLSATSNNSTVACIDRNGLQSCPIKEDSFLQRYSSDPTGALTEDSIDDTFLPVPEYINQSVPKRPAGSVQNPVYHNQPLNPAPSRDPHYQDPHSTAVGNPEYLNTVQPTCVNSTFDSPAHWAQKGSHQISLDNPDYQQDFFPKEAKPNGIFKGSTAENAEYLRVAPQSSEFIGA
T1 sequence (P00533 whole entry C797S/L858R, the tested form may be a part): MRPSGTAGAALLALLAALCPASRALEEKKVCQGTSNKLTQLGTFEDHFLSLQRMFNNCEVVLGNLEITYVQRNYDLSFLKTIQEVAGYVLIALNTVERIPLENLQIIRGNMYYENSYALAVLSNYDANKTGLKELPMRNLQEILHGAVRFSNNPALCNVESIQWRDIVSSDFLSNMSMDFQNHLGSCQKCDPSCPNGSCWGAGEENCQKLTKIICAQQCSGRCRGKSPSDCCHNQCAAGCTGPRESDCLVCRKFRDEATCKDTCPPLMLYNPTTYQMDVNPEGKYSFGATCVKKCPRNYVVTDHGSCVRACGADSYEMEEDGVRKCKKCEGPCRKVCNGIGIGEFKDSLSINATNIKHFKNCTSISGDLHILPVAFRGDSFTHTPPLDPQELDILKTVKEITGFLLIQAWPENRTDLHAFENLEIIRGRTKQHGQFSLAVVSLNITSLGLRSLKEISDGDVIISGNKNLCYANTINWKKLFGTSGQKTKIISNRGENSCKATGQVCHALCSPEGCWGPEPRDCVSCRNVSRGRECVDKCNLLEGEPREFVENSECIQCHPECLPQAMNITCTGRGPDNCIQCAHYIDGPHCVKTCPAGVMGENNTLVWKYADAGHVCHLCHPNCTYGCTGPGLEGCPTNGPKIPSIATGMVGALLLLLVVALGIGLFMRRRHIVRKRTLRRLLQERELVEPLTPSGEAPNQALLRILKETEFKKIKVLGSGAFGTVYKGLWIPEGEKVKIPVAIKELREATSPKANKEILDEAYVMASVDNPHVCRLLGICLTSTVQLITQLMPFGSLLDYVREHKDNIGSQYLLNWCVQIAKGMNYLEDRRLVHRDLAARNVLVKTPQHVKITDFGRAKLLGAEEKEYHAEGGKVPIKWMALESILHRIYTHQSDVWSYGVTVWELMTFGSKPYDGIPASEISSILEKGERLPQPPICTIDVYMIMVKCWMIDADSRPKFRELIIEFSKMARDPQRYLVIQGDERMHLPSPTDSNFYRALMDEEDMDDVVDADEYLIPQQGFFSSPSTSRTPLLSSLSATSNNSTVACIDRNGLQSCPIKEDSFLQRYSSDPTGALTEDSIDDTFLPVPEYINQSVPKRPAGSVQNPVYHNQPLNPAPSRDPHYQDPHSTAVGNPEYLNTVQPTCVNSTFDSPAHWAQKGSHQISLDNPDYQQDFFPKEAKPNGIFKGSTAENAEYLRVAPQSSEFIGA
Sequence of Ba/F3-FL-EGFR (L858R) (P00533 whole entry L858R): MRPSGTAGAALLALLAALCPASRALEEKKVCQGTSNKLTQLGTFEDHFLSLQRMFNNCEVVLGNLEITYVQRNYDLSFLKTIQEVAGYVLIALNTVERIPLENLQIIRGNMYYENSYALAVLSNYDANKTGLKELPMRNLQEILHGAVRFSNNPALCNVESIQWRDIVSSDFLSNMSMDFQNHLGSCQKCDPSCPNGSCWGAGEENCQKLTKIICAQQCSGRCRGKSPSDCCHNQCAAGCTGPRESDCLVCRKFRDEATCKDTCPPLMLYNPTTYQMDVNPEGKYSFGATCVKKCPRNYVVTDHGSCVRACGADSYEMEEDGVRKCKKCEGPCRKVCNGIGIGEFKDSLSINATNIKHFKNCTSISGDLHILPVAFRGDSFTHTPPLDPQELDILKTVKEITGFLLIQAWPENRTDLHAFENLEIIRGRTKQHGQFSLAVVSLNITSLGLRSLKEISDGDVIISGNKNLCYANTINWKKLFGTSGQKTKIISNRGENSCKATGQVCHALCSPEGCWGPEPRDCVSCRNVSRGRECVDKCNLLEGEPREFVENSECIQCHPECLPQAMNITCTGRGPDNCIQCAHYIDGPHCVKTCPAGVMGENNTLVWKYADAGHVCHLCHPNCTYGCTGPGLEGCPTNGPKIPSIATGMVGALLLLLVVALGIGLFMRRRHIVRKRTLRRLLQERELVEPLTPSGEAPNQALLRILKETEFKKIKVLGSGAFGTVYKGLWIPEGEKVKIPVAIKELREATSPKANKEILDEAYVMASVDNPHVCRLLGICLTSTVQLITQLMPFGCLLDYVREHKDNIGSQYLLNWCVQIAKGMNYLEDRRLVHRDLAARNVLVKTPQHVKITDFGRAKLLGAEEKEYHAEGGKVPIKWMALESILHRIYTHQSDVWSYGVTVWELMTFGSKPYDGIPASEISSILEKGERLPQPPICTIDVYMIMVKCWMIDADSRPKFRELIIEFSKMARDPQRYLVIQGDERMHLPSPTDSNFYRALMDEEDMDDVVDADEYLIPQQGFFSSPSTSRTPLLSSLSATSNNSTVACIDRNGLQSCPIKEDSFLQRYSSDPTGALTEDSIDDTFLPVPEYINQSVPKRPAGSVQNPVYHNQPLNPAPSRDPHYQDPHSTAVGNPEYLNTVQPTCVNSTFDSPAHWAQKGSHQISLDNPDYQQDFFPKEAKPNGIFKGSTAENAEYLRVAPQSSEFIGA
Sequence of Ba/F3-FL-EGFR (del19-E746-A750/T790M) (P00533 with tags, fused parts or gaps DEL746-750/T790M): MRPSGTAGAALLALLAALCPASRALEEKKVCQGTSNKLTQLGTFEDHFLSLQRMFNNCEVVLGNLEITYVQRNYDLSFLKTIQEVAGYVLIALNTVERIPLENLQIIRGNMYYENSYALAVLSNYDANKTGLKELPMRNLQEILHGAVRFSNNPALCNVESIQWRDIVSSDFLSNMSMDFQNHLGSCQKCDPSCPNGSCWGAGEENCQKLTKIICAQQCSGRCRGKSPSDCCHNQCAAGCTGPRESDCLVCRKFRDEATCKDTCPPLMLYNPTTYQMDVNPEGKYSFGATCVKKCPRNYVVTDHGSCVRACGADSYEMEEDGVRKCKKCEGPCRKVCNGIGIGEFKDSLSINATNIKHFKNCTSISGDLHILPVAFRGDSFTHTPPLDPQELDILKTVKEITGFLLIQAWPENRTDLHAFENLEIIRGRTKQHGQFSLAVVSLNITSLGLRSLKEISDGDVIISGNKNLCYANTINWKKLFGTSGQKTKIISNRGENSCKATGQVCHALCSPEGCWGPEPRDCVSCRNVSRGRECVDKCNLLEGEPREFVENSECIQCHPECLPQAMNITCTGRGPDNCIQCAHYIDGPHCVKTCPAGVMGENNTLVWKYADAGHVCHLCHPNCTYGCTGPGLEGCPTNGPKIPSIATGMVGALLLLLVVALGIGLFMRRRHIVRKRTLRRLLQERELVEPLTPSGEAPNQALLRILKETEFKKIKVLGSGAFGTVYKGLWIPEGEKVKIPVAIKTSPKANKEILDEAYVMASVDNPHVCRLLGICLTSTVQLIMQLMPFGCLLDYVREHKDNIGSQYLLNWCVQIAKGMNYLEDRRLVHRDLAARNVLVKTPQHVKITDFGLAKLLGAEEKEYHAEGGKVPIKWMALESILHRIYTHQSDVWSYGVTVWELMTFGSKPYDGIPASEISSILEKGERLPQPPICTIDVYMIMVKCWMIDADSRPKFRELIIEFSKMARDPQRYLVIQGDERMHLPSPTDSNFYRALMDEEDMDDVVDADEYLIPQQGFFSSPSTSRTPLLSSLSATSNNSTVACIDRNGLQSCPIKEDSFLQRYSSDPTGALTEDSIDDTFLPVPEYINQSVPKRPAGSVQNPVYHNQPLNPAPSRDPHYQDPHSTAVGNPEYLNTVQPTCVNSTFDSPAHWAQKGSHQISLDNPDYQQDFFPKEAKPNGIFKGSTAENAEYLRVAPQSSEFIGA

On to `Cc1cc2cc(n1)-c1cnn(C)c1OCCC[C@@H](C)CN1/C(=N/C2=O)Nc2ccc(N=S(C)(C)=O)cc21` [WX-006], for which the GI50 in assay [1] (setting [6]) was determined as 3.1 nM; in assay [2] (setting [7]), 0.8 nM; in assay [3] (setting [8]), 12.9 nM; on Ba/F3-FL-EGFR (L858R) it was 18.6 nM; on Ba/F3-FL-EGFR (WT) (setting [9]) it was 111 nM; in assay [4] it was 0.6 nM. In addition, in assay [5], the GI50 amounted to 15.4 nM.

Consider `Cc1cc2cc(n1)-c1cnn(C)c1OC[C@H]1CC[C@H](C1)CN1/C(=N/C2=O)Nc2ccc(N=S(C)(C)=O)cc21` (single isomer, unassigned) [WX-027A], for which the GI50 in assay [1] (setting [6]) came to 5.2 nM; in assay [2] (setting [7]), 1.9 nM; in assay [3] (setting [8]) it was 14.3 nM; on Ba/F3-FL-EGFR (L858R) it was 39.6 nM; at Ba/F3-FL-EGFR (WT) (setting [9]), 295 nM; in assay [4] it was 1.2 nM. In addition, in assay [5], the GI50 stood at 12.9 nM.

Consider `Cc1cc2cc(n1)-c1cnn(C)c1OCCC[C@@H](C)CN1/C(=N/C2=O)Nc2ccc(N=S3(=O)CCCC3)cc21` [WX-010 (trifluoroacetate)], for which the GI50 in assay [1] (setting [6]) amounted to 3 nM; in assay [2] (setting [7]), 0.4 nM; in assay [3] (setting [8]), 10.5 nM; at Ba/F3-FL-EGFR (L858R) it was 14 nM; at Ba/F3-FL-EGFR (WT) (setting [9]) it was 86 nM; in assay [4], 0.8 nM. Besides, in assay [5], the GI50 was 11.2 nM.

For `Cc1cc2cc(n1)-c1cnn(C)c1OCCC[C@@H](C)CN1/C(=N/C2=O)Nc2ccc(N=S(C)(C)=O)c(Cl)c21` [WX-019], the GI50 in assay [1] (setting [6]) was found to be 7.3 nM; in assay [2] (setting [7]) it was 2.9 nM; in assay [3] (setting [8]), 16.8 nM; on Ba/F3-FL-EGFR (L858R) it was 42.2 nM; on Ba/F3-FL-EGFR (WT) (setting [9]), 303 nM; in assay [4], 1.3 nM. Moreover, the GI50 in assay [5] worked out at 15.6 nM.

`Cc1cc2cc(n1)-c1cnn(C)c1OCCC[C@@H](C)CN1/C(=N/C2=O)Nc2ccc(N=S3(=O)CCOCC3)cc21` [WX-013]: the GI50 in assay [1] (read-out: Cell half-maximal inhibition concentration IC50 Ba/F3-TEL-EGFR (L858R/C797S), 72 hours) was found to be 3.1 nM; in assay [2] (read-out: Cell half-maximal inhibition concentration IC50 Ba/F3-FL-EGFR (del19-E746-A750/T790M), 72 hours), 0.6 nM; in assay [3] (read-out: Cell half-maximal inhibition concentration IC50 Ba/F3-FL-EGFR (L858R/T790M), 72 hours), 12.1 nM; at Ba/F3-FL-EGFR (WT) (read-out: Cell half-maximal inhibition concentration IC50 Ba/F3-FL-EGFR (WT), 72 hours) it was 123 nM.
